Patent US8957074B2 (Novartis AG, priority 2010, dated 2015)
Where two headings read alike, the source gives them in different places.

Legend:
CDK1/cyclin B = CDK1/cyclin B (Homo sapiens (Human), UniProt P06493); experiment: CDK1/cyclin B enzymatic activity assay (IMAP-FP); format: biochemical; conditions: 100 nM Tamra Histone-H1 peptide, 20 μM ATP, 120 min at room temperature, read-out: Biochemical CDK1 enzyme IC50
Text: CDK1/Cyclin B Enzymatic Activity Assay
A 384-well microtiter IMAP-FP™ (Molecular Devices Trade Mark Technology) endpoint assay was used for CDK1/cyclin B kinase activity measurements. The same assay was used for IC50 determination of small molecule inhibitors.

[1] = tested on: phosphorylation of pRb at the Ser780 site in JeKo-1 mantle cell lymphoma cells; experiment: CDK4 cellular assay: ELISA of pRb phosphorylation at Ser780 in JeKo-1 cells; format: cell-based; conditions: Homo sapiens
CDK4/cyclin D1 = CDK4/cyclin D1 (Homo sapiens (Human), UniProt P11802); experiment: CDK4/cyclin D1 enzymatic activity assay (TR-FRET, phosphorylation of pRb at Ser780); format: biochemical
CDK4/cyclin D1, sequence (P11802 whole entry): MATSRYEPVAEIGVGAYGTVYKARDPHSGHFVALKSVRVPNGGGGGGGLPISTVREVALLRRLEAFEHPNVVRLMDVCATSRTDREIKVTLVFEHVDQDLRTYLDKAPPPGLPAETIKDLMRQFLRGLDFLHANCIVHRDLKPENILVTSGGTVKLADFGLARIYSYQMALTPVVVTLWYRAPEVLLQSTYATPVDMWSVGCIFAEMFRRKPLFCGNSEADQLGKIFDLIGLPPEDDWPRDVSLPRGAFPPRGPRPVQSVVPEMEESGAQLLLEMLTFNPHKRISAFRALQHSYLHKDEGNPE
CDK4/cyclin D1, sequence (P24385 whole entry partner): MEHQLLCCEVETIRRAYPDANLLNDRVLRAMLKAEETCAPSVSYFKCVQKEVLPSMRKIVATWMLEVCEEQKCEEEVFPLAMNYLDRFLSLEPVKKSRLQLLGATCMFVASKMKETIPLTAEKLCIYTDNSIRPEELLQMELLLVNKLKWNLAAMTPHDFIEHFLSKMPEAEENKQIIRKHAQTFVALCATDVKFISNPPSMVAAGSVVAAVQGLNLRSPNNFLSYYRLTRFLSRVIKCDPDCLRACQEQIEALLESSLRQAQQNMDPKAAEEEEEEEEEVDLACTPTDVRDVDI
How it was run: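 Phosphorylation at pRb Ser780, detected by TR-FRET, gave IC50s and kinetics. Enzyme: baculovirus/Sf21-expressed human CDK4/cyclin D1. ATP at 3 μM initiated the reaction; EDTA (pH 8.0) stopped it after 60 min at 22° C.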

[2] = JeKo-1, read-out: Cellular ppRb inhibition IC50
[3] = JeKo-1, read-out: Normalized cellular ppRb inhibition IC50
[4] = 0.3 nM CDK4/cyclin D1, 150 nM biotin-pRb (773-924), 3 μM ATP, 60 min at 22° C., read-out: Biochemical CDK4 enzyme IC50
[5] = JeKo-1, JeKo-1 cells, p-pRb % inhibition adjusted with total pRb levels, read-out: Normalized cellular ppRb inhibition IC50
[6] = JeKo-1, JeKo-1 cells, p-pRb Ser780 ELISA, non-normalized, read-out: Cellular ppRb inhibition IC50
[7] = JeKo-1 cells, p-pRb % inhibition adjusted with total pRb levels, read-out: Normalized cellular ppRb inhibition IC50
[8] = JeKo-1 cells, p-pRb Ser780 ELISA, non-normalized, read-out: Cellular ppRb inhibition IC50

CDK1/cyclin B, sequence (P06493 whole entry, species assumed): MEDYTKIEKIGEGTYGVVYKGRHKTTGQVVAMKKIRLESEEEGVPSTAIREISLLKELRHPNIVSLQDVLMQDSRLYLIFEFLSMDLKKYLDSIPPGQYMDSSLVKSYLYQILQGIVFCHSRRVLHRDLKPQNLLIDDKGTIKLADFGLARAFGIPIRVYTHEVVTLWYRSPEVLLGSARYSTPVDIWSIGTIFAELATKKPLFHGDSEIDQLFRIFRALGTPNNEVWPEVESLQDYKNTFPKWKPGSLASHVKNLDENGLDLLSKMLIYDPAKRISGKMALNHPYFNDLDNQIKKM
CDK1/cyclin B, sequence (P14635 whole entry partner, species assumed): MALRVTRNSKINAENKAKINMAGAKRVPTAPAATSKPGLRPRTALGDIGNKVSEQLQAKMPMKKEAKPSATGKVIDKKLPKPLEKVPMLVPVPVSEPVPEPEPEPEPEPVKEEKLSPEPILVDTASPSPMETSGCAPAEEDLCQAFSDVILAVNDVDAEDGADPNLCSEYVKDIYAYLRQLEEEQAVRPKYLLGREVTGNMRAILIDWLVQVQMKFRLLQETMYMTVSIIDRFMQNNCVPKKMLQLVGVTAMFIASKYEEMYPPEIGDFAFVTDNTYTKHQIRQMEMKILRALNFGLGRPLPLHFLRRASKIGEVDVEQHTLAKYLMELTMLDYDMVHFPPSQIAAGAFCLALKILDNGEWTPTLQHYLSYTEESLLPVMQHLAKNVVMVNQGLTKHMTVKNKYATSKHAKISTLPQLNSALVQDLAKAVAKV

IC50 (CDK4/cyclin D1; [4]) [nM] | Compound | IC50 (CDK1/cyclin B; 0.25 nM CDK1/cyclin B) [nM] | IC50 [1, 2] [nM] | IC50 [1, 3] [nM] | IC50 (CDK1/cyclin B; […] CDK1/cyclin B) [nM] | IC50 [1, 5] [nM] | IC50 [1, 6] [nM] | IC50 [1, 7] [nM] | IC50 [1, 8] [nM] | IC50 (CDK4/cyclin D1) [nM]
18 | CN(C)C(=O)c1cc2cnc(Nc3ccc(C(=O)N4C[C@@H]5C[C@]5(N)C4)cn3)nc2n1C1CCCC1 (stereo in doubt) [Example 15, 2-[5-((S)-1-Amino-3-aza-bicyclo[3.1.0]hexane-3-carbonyl)-pyridin-2-ylamino]-7-cyclopentyl-7H-pyrrolo[2,3-d]pyrimidine-6-carboxylic acid dimethylamide] |  |  |  | > 15000 | 264 | 43 |  |  | 
5 | CN(C)C(=O)c1cc2cnc(Nc3ccc(C(=O)N4C[C@@H]5CN[C@@H](C5)C4)cn3)nc2n1C1CCCC1 [Example 10, 7-Cyclopentyl-2-[5-((1S,5S)-3,6-diaza-bicyclo[3.2.1]octane-3-carbonyl)-pyridin-2-ylamino]-7H-pyrrolo[2,3-d]pyrimidine-6-carboxylic acid dimethylamide] |  |  |  | 4140 | 25 | 21 |  |  | 
< 5 | CN(C)C(=O)c1cc2cnc(Nc3ccc(N4CC5CNCC5C4=O)cn3)nc2n1C1CCCC1 (racemic) [Example 84, 7-cyclopentyl-N,N-dimethyl-2-(5-cis-1-oxohexahydropyrrolo[3,4-c]pyrrol-2(1H)-yl)pyridin-2-ylamino)-7H-pyrrolo[2,3-d]pyrimidine-6-carboxamide] | 18000 |  |  |  | 10 to 28 | 7 to 17 |  |  | 
15 | CN(C)C(=O)c1cc2cnc(Nc3ccc(N4C[C@]5(CCCNCC5)OC4=O)cn3)nc2n1C1CCCC1 [Example 106, 7-Cyclopentyl-2-[5-((R)-2-oxo-1-oxa-3,8-diaza-spiro[4.6]undec-3-yl)-pyridin-2-ylamino]-7H-pyrrolo[2,3-d]pyrimidine-6-carboxylic acid dimethylamide] |  |  |  | > 15000 |  |  | 114 | 70 | 
13 | CN1CCCC2(C1)CN(c1ccc(Nc3ncc4cc(C(=O)N(C)C)n(C5CCCC5)c4n3)nc1)C(=O)O2 (stereo not drawn) [Example 108, 7-cyclopentyl-N,N-dimethyl-2-(5-(7-methyl-2-oxo-1-oxa-3,7-diazaspiro[4.5]decan-3-yl)pyridin-2-ylamino)-7H-pyrrolo[2,3-d]pyrimidine-6-carboxamide] |  |  |  | > 15000 | 69 | 61 |  |  | 
24 | CN(C)C(=O)c1cc2cnc(Nc3ccc(C(=O)N4CCN5CCC4CC5)cn3)nc2n1C1CCCC1 [Example 48, 7-Cyclopentyl-2-[5-(1,4-diaza-bicyclo[3.2.2]nonane-4-carbonyl)-pyridin-2-ylamino]-7H-pyrrolo[2,3-d]pyrimidine-6-carboxylic acid dimethylamide] |  |  |  | > 15000 |  |  | 229 | 152 | 
30 | CN(C)C(=O)c1cc2cnc(Nc3ccc(C(=O)N4CC5CNCC(C4)O5)cn3)nc2n1C1CCCC1 [Example 47, 7-Cyclopentyl-2-[5-(9-oxa-3,7-diaza-bicyclo[3.3.1]nonane-3-carbonyl)-pyridin-2-ylamino]-7H-pyrrolo[2,3-d]pyrimidine-6-carboxylic acid dimethylamide] |  |  |  | > 15000 |  |  | 352 | 315 | 
 | CN(C)C(=O)c1cc2cnc(Nc3ccc(N4CC5CCC(N5)C4=O)cn3)nc2n1C1CCCCCC1 (stereo not drawn) [Example 80, 7-Cycloheptyl-2-[5-(2-oxo-3,8-diaza-bicyclo[3.2.1]oct-3-yl)-pyridin-2-ylamino]-7H-pyrrolo[2,3-d]pyrimidine-6-carboxylic acid dimethylamide] | 14000 |  |  |  | 74 to 474 | 51 to 320 |  |  | 12 to 14
45 | CN(C)C(=O)c1cc2cnc(Nc3ccc(C(=O)N4C[C@H]5C[C@@H]4CN5)cn3)nc2n1C1CCCC1 [Example 49, 7-Cyclopentyl-2-[5-((R,R)-2,5-diaza-bicyclo[2.2.1]heptane-2-carbonyl)-pyridin-2-ylamino]-7H-pyrrolo[2,3-d]pyrimidine-6-carboxylic acid dimethylamide] |  |  |  | > 15000 | 52 to 431 | 44 to 231 |  |  | 
 | CN(C)C(=O)c1cc2cnc(Nc3ccc(C(=O)N4C5CCC4CNC5)cn3)nc2n1C1CCCC1 [Example 22, 7-Cyclopentyl-2-[5-(3,8-diaza-bicyclo[3.2.1]octane-8-carbonyl)-pyridin-2-ylamino]-7H-pyrrolo[2,3-d]pyrimidine-6-carboxylic acid dimethylamide] |  |  |  | > 15000 | 86 to 817 | 86 to 513 |  |  | 62 to 83
1 | CN(C)C(=O)c1cc2cnc(Nc3ccc(C(=O)N4CC5CC4CN5)cn3)nc2n1C1CCCCCC1 (stereo not drawn) [Example 3, 7-Cycloheptyl-2-[5-(2,5-diaza-bicyclo[2.2.1]heptane-2-carbonyl)-pyridin-2-ylamino]-7H-pyrrolo[2,3-d]pyrimidine-6-carboxylic acid dimethylamide] | 4200 to 5140 |  |  |  |  |  | 29 to 33 | 19 to 26 | 

Compound | IC50 (CDK4/cyclin D1; [4]) [nM] | IC50 (CDK1/cyclin B; 0.25 nM CDK1/cyclin B) [nM] | IC50 [1, 2] [nM] | IC50 [1, 3] [nM] | IC50 (CDK1/cyclin B; […] CDK1/cyclin B) [nM] | IC50 [1, 5] [nM] | IC50 [1, 6] [nM] | IC50 [1, 7] [nM] | IC50 [1, 8] [nM] | IC50 (CDK4/cyclin D1) [nM]
CN(C)C(=O)c1cc2cnc(Nc3ccc(N4C[C@H]5CNC[C@H]5CC4=O)cn3)nc2n1C1CCCC1 (stereo in doubt) [Example 91, 7-cyclopentyl-N,N-dimethyl-2-(5-(cis-6-oxotetrahydro-1H-pyrrolo[3,4-c]pyridin-5(6H,7H,7aH)-yl)pyridin-2-ylamino)-7H-pyrrolo[2,3-d]pyrimidine-6-carboxamide] | 5 to 7 | 13300 to 14900 | 10 to 27 | 22 to 74 |  |  |  |  |  | 
Cc1nc(Nc2ncc3cc(C(=O)N(C)C)n(C4CCCC4)c3n2)ccc1C(=O)N1CC2CCC(C1)N2 [Example 50, 7-Cyclopentyl-2-[5-(3,8-diaza-bicyclo[3.2.1]octane-3-carbonyl)-6-methyl-pyridin-2-ylamino]-7H-pyrrolo[2,3-d]pyrimidine-6-carboxylic acid dimethylamide] | 21 |  |  |  | > 15000 | 90 | 41 |  |  | 
CN(C)C(=O)c1cc2cnc(Nc3ccc(N4CCCC5(CCNCC5)C4=O)cn3)nc2n1C1CCCC1 [Example 114, 7-Cyclopentyl-2-[5-(1-oxo-2,9-diaza-spiro[5,5]undec-2-yl)-pyridin-2-ylamino]-7H-pyrrolo[2,3-d]pyrimidine-6-carboxylic acid dimethylamide] | 190 | > 15000 | 1350 | 7100 |  |  |  |  |  | 
CN(C)C(=O)c1cc2cnc(Nc3ccc(C(=O)N4CC5CCC(C4)N5)cn3)nc2n1C1CCCCC1 [Example 66, 7-Cyclohexyl-2-[5-(3,8-diaza-bicyclo[3.2.1]octane-3-carbonyl)-pyridin-2-ylamino]-7H-pyrrolo[2,3-d]pyrimidine-6-carboxylic acid dimethylamide] | 4 to 7 |  |  |  | > 15000 | 41 | 38 |  |  | 
CC(C)[C@@H](N)C(=O)N1C2CCC1CN(C(=O)c1ccc(Nc3ncc4cc(C(=O)N(C)C)n(C5CCCC5)c4n3)nc1)C2 [Example 62, 2-{5-[8-((R)-2-Amino-3-methyl-butyryl)-3,8-diaza-bicyclo[3.2.1]octane-3-carbonyl]-pyridin-2-ylamino}-7-cyclopentyl-7H-pyrrolo[2,3-d]pyrimidine-6-carboxylic acid dimethylamide] | 10 |  |  |  | 39900 |  |  | 723 | 291 | 
CN(C)C(=O)c1cc2cnc(Nc3ccc(C(=O)N4CC5CCC(C4)N5)cn3)nc2n1-c1cccc(C(C)(C)C)c1 [Example 54, 7-(3-tert-Butyl-phenyl)-2-[5-(3,8-diaza-bicyclo[3.2.1]octane-3-carbonyl)-pyridin-2-ylamino]-7H-pyrrolo[2,3-d]pyrimidine-6-carboxylic acid dimethylamide] | 3 |  |  |  | 1990 | 8 to 47 | 6 to 33 |  |  | 
CN(C)C(=O)c1cc2cnc(Nc3ccc(N4CC5CNCC5CC4=O)cn3)nc2n1C1CCCC1 (racemic) [Example 90, 7-cyclopentyl-N,N-dimethyl-2-(5-(cis-6-oxotetrahydro-1H-pyrrolo[3,4-c]pyridin-5(6H,7H,7aH)-yl)pyridin-2-ylamino)-7H-pyrrolo[2,3-d]pyrimidine-6-carboxamide] | 5 |  |  |  | > 15000 | 14 to 56 | 9 to 34 |  |  | 
CC(=O)NCC(=O)N1[C@@H]2CC[C@H]1CN(c1ccc(Nc3ncc4cc(C(=O)N(C)C)n(C5CCCC5)c4n3)nc1)C(=O)C2 [Example 138, 2-(5-((1S,6R)-9-(2-acetamidoacetyl)-4-oxo-3,9-diazabicyclo[4.2.1]nonan-3-yl)pyridin-2-ylamino)-7-cyclopentyl-N,N-dimethyl-7H-pyrrolo[2,3-d]pyrimidine-6-carboxamide] | 106 |  |  |  | > 15000 |  |  |  | 1600 | 
